Data taken from patent publication US20220193042A1, “NITAZOXANIDE AND THIAZOLIDES FOR USE IN THE TREATMENT OF DISEASES ASSOCIATED WITH OXIDATIVE STRESS” (GENFIT, priority 2019, published 2022).

What was measured:
[1] = test system: Nrf2 target genes; assay: Enrichment of Nrf2 target genes in hepatic transcriptome (RNAseq), CDAA/c NASH model; type: in vivo, C57Bl/6J mice; conditions: NTZ+CDAA/c vs CDAA/c; Nrf2 target genes are 1.3% of whole identified transcriptome
Procedure: In the current study, the preventive effects of NTZ 100 mg/kg/day were assessed in a murine model. 6 week-old male C57Bl/6J mice were fed a control (CSAA) diet (n=8), CDAA+1% cholesterol diet (n=12), or CDAA+1% cholesterol diet supplemented with NTZ 100 mg/kg/day (n=8) for 12 weeks. The food was purchased from Ssniff® company (Soest, Germany). Nitazoxanide (Interchim, Ref #RQ550) was incorporated by Ssniff® into CDAA+1% chol diet in powder form to the required dose.
The body weight and the food intake were monitored twice per week. On the last day of treatment, mice were sacrificed after a 6 h fasting period. The liver was rapidly excised for transcriptomic and histological studies.
Upon measurement of RNA samples concentration by nanodrop, the quality was assessed using bioanalyser. […]
Reads were cleaned using Trimmomatic v.0.36 with the following parameters: SLIDINGWINDOW:5:20 LEADING:30 TRAILING:30 MINLEN:60.Then reads were aligned on the genome reference (Mus musculus GRCm38.90) with rnacocktail using hisat2 v.2.1.0 as aligner with default parameters. […]
To identify differentially expressed genes (DE genes), we used R (version 3.4.3) and the DESEa2 library (v. 1.18.1). […] Briefly, the count matrix produced by FeatureCounts was analyzed by the DESeqDataSetFromMatrixO function followed by the DEseq( ) function from the DESeq2 library. […]

[2] = test system: Hep G2 cells; assay: Intracellular GSH detection (ThiolTracker Violet) in menadione-stressed Hep G2 cells; type: cell-based, human; conditions: 1 μM TZ preincubated 1 hour, then 100 μM menadione for 2 hours
Procedure: Tizoxanide (Interchim; cat #RP253) was dissolved in DMF (Sigma; cat #227056). Menadione (Sigma; cat #M2518) and N-Acetylcysteine were dissolved (Sigma; cat #A9165) in water. Hep G2 cells (ECACC) were plated at a density of 20 000 cells par well into a 96-well microplate in 100 μl of DMEM (Gibco; cat #41965-039) supplemented with 1% P/S (Gibco; cat #15140-122), 1% glutamine(Gibco; cat #25030-024).The complete medium contained 10% SVF (Gibco; cat #10270-106). The next day, culture medium was removed and replaced by 100 μL of DMEM (Gibco; cat #31053-028) without Red Phenol and SVF but supplemented with 1% P/S (Gibco; cat #15140-122), 1% glutamine(Gibco; cat #25030-024). The serum deprived HepG2 were preincubated for 1 hour with TZ or N-Acetylcysteine (NAC) then exposed to Menadione (MND) for 2 hours. Compounds were dissolved in their respective vehicles a mentioned above and diluted in the deprived culture medium. […] The cellular level of reduced glutathione was subsequently monitored using the ThiolTracker Violet dye (Invitrogen, cat #T10096). Briefly, cells were washed two times with DPBS (Invitrogen, Cat #14287-080) then incubated for 30 min at 37° with 100 μl of prewarmed ThiolTracker Violet dye solution prepared in DPBS according the supplier 's instructions and fluorescence was measured (Ex:404 nm, Em: 526 nm)

[3] = test system: Nrf2-ARE signaling; assay: ARE Reporter - HepG2 cell line luciferase assay; type: cell-based, human; conditions: 1 μM TZ, 18 h exposure, vs vehicle
Procedure: ARE Reporter—Hep G2 cells(BPS Bioscience, Inc., San Diego cat #60513) were cultured following manufacturer's instructions. After thawing (BPS thaw medium 1, cat #60187), cells were cultured in growth-medium (BPS growth medium 1K, cat #79533) and subsequently plated at a density of 40 000 cells par well in a 96-well microplate in 45 μl of assay medium (BPS thaw medium). TZ (Interchim; cat #RP253) & DL-Sulforaphane (Sigma; cat #S4441) were dissolved in DMSO and diluted into assay medium. 5 μl of 10× dilution were added on cells to reach a final concentration of 1 μM and 3 μM for TZ and DL-Sulforaphane (DL-Sulfo) respectively. After 18 h exposure, luciferase activity was determined. 50 μl of One-Step Luciferase assay system (BPS cat #60690) were added per well and after −15 min of rocking at room temperature, luminescence was measured using a luminometer.

Row | SMILES | proportion of Nrf2-regulated genes among all differentially expressed genes [1] | prevention of MND-induced reduction of cellular GSH [2] | ARE-mediated luciferase activity (ARE-mediated transcription) [3]
1 | CC(=O)Oc1ccccc1C(=O)Nc1ncc([N+](=O)[O-])s1 [NTZ, [2-[(5-nitro-1,3-thiazol-2-yl)carbamoyl]phenyl]ethanoate] | more than 8% | – | –
2 | O=C(Nc1ncc([N+](=O)[O-])s1)c1ccccc1O [TZ, Tizoxanide] | – | totally prevented | significant increase
